Experimental data: patent US9999222B2, “Herbicidal combination comprising azines” (BASF SE, priority 2014, dated 2018)
“And” between values parts separate entries of the source, which are not always exact repeats. Equal entries are not always repeated. Where two headings read alike, the source gives them in different places.

Assays:
Assay in all cases: Greenhouse test, pre-emergence treatment
LOLMU = format: in vivo, Lolium multiflorum; settings: pre-emergence
Outline: (§1)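 Damage was rated on a 0-100 scale, with 100 meaning no emergence or full destruction of aerial parts. Observed combination effects were set against the additive Colby expectation E=X+Y−(X·Y/100). Spray liquor was water-based, from 10% emulsion concentrates, applied pre-emergence right after sowing in loamy sand (about 3.0% humus). Plants were held at 10-25 °C or 20-35 °C for 2 to 4 weeks.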

KCHSC = format: in vivo, Kochia scoparia; settings: Bassia scoparia, pre-emergence, 480 h, pre-emergence, 125 g ai/ha; read-out: observed % activity 20 DAT
Outline: as §1

COMBE = format: in vivo, Commelina benghalensis; settings: Commelina benghalensis, pre-emergence, 480 h, pre-emergence, 250 g ai/ha; read-out: observed % activity 20 DAT
Outline: as §1

EPHHL = format: in vivo, Euphorbia heterophylla; settings: Euphorbia heterophylla, pre-emergence, 480 h, pre-emergence, 250 g ai/ha; read-out: observed % activity 20 DAT
Outline: as §1

ALOMY = format: in vivo, Alopecurus myosuroides
Outline: as §1

POLCO = format: in vivo, Polygonum convolvulus; settings: Fallopia convolvulus, pre-emergence, 480 h, pre-emergence
Outline: as §1

GALAP = format: in vivo, Galium aparine; settings: Galium aparine, pre-emergence, 480 h; for inhibition at 125 g/ha: 125 g ai/ha
Outline: as §1

BRADC = format: in vivo, Brachiaria decumbens
Outline: as §1

IPOHE = format: in vivo, Ipomoea hederacea; settings: Ipomoea hederacea, 480 h, 250 g ai/ha, read-out: observed % activity 20 DAT
Outline: as §1

AVEFA = format: in vivo, Avena fatua; settings: for inhibition at 125 g/ha / inhibition at 250 g/ha: Avena fatua, 480 h; for inhibition at 125 g/ha: 125 g ai/ha
Outline: as §1

PHACA = format: in vivo, Phalaris canariensis; settings: for inhibition at 250 g/ha: 250 g ai/ha
Outline: as §1

ECHCG = format: in vivo, Echinocloa crus-galli; settings: Echinochloa crus-galli, 480 h, read-out: observed % activity 20 DAT
Outline: as §1

[1] = 62, 5 g ai/ha, 20 DAT, read-out: observed % activity

CSc1nnc(C(C)(C)C)c(=O)n1N [metribuzin]
inhibition at 125 g/ha (LOLMU; Lolium multiflorum, 480 h, 125 g ai/ha, 20 DAT, read-out: observed % activity): 60% | inhibition at 250 g/ha (LOLMU; Lolium multiflorum, 480 h, 250 g ai/ha, 20 DAT, read-out: observed % activity): 90% | inhibition at 62.5 g/ha (LOLMU; Lolium multiflorum, 480 h, 62.5 g ai/ha, read-out: observed % activity 20 DAT): 0% | inhibition at 125 g/ha (LOLMU; Lolium multiflorum, 480 h, 125 g ai/ha, read-out: observed % activity 20 DAT): 55% | observed % activity 20 DAT (LOLMU; 125 g ai/ha): 65% | observed % activity 20 DAT (LOLMU; 250 g ai/ha): 45% and 75% | inhibition at 125 g/ha (KCHSC): 95% | inhibition at 250 g/ha (COMBE): 90% | inhibition at 250 g/ha (EPHHL): 85% | observed % activity (ALOMY; 62, 5 g ai/ha, 20 DAT): 35% | inhibition at 250 g/ha (ALOMY; Alopecurus myosuroides, pre-emergence, 480 h, 250 g ai/ha, 20 DAT, read-out: observed % activity): 98% | inhibition at 62.5 g/ha (ALOMY; Alopecurus myosuroides, pre-emergence, 480 h, pre-emergence, 62.5 g ai/ha, read-out: observed % activity 20 DAT): 0% | inhibition at 125 g/ha (ALOMY; Alopecurus myosuroides, pre-emergence, 480 h, pre-emergence, 125 g ai/ha, read-out: observed % activity 20 DAT): 80% | inhibition at 250 g/ha (ALOMY; Alopecurus myosuroides, pre-emergence, 480 h, pre-emergence, 250 g ai/ha, read-out: observed % activity 20 DAT): 90% | observed % activity 20 DAT (ALOMY; pre-emergence, 250 g ai/ha): 75% | inhibition at 125 g/ha (POLCO; 125 g ai/ha, read-out: observed % activity 20 DAT): 20% | inhibition at 250 g/ha (POLCO; 250 g ai/ha, read-out: observed % activity 20 DAT): 20% | pest or weed control at 62.5 g/ha (POLCO; [1]): 0% | inhibition at 125 g/ha (GALAP; 20 DAT, read-out: observed % activity): 30% | inhibition at 250 g/ha (GALAP; 250 g ai/ha, 20 DAT, read-out: observed % activity): 30% | inhibition at 125 g/ha (GALAP; read-out: observed % activity 20 DAT): 20% | pest or weed control at 62.5 g/ha (GALAP; [1]): 30% | observed % activity (BRADC; 62, 5 g ai/ha, 20 DAT): 50% | inhibition at 62.5 g/ha (BRADC; Urochloa decumbens, pre-emergence, 480 h, pre-emergence, 62.5 g ai/ha, read-out: observed % activity 20 DAT): 45% | observed % activity 20 DAT (BRADC; pre-emergence, 250 g ai/ha): 40% | inhibition at 250 g/ha (IPOHE): 20% | observed % activity (AVEFA; 62, 5 g ai/ha, 20 DAT): 0% | inhibition at 125 g/ha (AVEFA; pre-emergence, 20 DAT, read-out: observed % activity): 10% | inhibition at 250 g/ha (AVEFA; pre-emergence, 250 g ai/ha, 20 DAT, read-out: observed % activity): 55% | inhibition at 125 g/ha (AVEFA; pre-emergence, pre-emergence, read-out: observed % activity 20 DAT): 80% | inhibition at 250 g/ha (AVEFA; pre-emergence, pre-emergence, 250 g ai/ha, read-out: observed % activity 20 DAT): 70% | observed % activity 20 DAT (AVEFA; pre-emergence, 250 g ai/ha): 65% | observed % activity (PHACA; 62, 5 g ai/ha, 20 DAT): 30% | inhibition at 125 g/ha (PHACA; Phalaris canariensis, pre-emergence, 480 h, 125 g ai/ha, 20 DAT, read-out: observed % activity): 70% | inhibition at 250 g/ha (PHACA; Phalaris canariensis, pre-emergence, 480 h, 20 DAT, read-out: observed % activity): 90% | inhibition at 62.5 g/ha (PHACA; Phalaris canariensis, pre-emergence, 480 h, pre-emergence, 62.5 g ai/ha, read-out: observed % activity 20 DAT): 15% | inhibition at 125 g/ha (PHACA; Phalaris canariensis, pre-emergence, 480 h, pre-emergence, 125 g ai/ha, read-out: observed % activity 20 DAT): 65% | inhibition at 250 g/ha (PHACA; Phalaris canariensis, pre-emergence, 480 h, pre-emergence, read-out: observed % activity 20 DAT): 95% | observed % activity 20 DAT (PHACA; pre-emergence, 125 g ai/ha): 75% | inhibition at 125 g/ha (ECHCG; 125 g ai/ha): 80% | inhibition at 250 g/ha (ECHCG; 250 g ai/ha): 95%
